Data: ChEMBL document CHEMBL1139888, “Fungicidal activities of dihydroferulic acid alkyl ester analogues” (2007)

Legend:
Format in all cases: functional
Saccharomyces cerevisiae [1] = assay: Growth inhibition of Saccharomyces cerevisiae slt2delta deletion mutant at 1.6 mM relative to control after 48 hrs
Saccharomyces cerevisiae [2] = assay: Antifungal activity against Saccharomyces cerevisiae slt2delta deletion mutant assessed as cell number at 1.6 mM after 48 hrs
Saccharomyces cerevisiae [3] = assay: Antifungal activity against Saccharomyces cerevisiae slt2delta deletion mutant assessed as cell number at 3.2 mM after 48 hrs
Saccharomyces cerevisiae [4] = assay: Growth inhibition of Saccharomyces cerevisiae slt2delta deletion mutant at 3.2 mM relative to control after 48 hrs

## CCCOC(=O)CCc1ccc(O)c(OC)c1 [DIHYDROFERULIC ACID PROPYL ESTER]
Saccharomyces cerevisiae [1]
  inhibition at 1600 µM: 75.5%
Saccharomyces cerevisiae [2]
  Activity: 1.13
Saccharomyces cerevisiae [3]
  Activity: 0.43
Saccharomyces cerevisiae [4]
  inhibition at 3200 µM: 90.7%
